# Test: recombinant barcode read abundance after kanamycin selection (control-corrected) (log10(CPM+1)); higher = more efficient recombination; sequences stand for … in AGTGCAGAGAAAATCGGCCAGTTTTCTCTGCCTGCAGTCCGCATGCCGT…AGATTTATGCAGCGGACTGCCTTTCTCCCAAAGTGATAAACCGGACAGTATCATGGACCGGTTTTCCCGGTAATCCGTATTTGCAAGGTTGGTTTCACT; site = the 11-nt target
# Method in brief: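 Values are log10(CPM+1) from a pooled E. coli screen of targets paired with IS621 bridge RNA target-binding loops. Recombination efficiency here means counts per million of recombinant-junction barcodes, averaged and control-corrected. Plates were chloramphenicol/ampicillin LB agar for the control and chloramphenicol/ampicillin/kanamycin with 0.1 mM IPTG, two replicates each.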
# 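Note: IS621 recombinase and bridge RNA in Escherichia coli cells.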
row,Sequence,recombinant barcode read abundance (log10)
1,CTCTGTCCTTGGGTTCTAACCTGTTGCTG (site CTCTGTCCTCA),0.374
2,TAGGGTCCTTGGGTTCTAACCTGTTGCGG (site TAAGGTCCTCT),1.35
3,CCTCGTCCTTGGGTTCTAACCTGTTGCCC (site CCTCGTCCTGG),0.175
4,CGAACTACTTGGGTTCTAACCTGTTGCTT (site CGAACTACTAC),0.205
5,AGGTTCCCTTGGGTTCTAACCTGTTGCTG (site AGGTTCCCTGA),0.142
6,TGTGAGTCTTGGGTTCTAACCTGTTGCGT (site TGTGAGTCTAG),0.27
7,TGGAGCCCTTGGGTTCTAACCTGTTGCAA (site TGGAGCCCTTT),0.155
8,GGTTCTCCTTGGGTTCTAACCTGTTGCCT (site AGTTCTCCTAG),0.0625
9,CCGCTCGCTTGGGTTCTAACCTGTTGCCT (site CCGCTTACTAG),0.117
10,CGTCGACCTTGGGTTCTAACCTGTTGCAT (site CGTCGACCTAT),0.128
11,CCAAGGCCTTGGGTTCTAACCTGTTGCCG (site TTCGCATCTAA),0.208
12,ACTTTAGCTTGGGTTCTAACCTGTTGCAG (site ACATTAGCTTT),0.056
13,GCATGGACTTGGGTTCTAACCTGTTGCAG (site GCAGGGACTCT),0.241
14,GTTCAGACTTGGGTTCTAACCTGTTGCCT (site GTCCAGACTAG),0.948
15,CCAAGGGCTTGGGTTCTAACCTGTTGCGG (site CCAAGGGCTCT),2.18
16,CGATTAGCTTGGGTTCTAACCTGTTGCCT (site CGATTATCTAG),0.186
17,CTAGTGTCTTGGGTTCTAACCTGTTGCTA (site CTAGTGTCTTA),2.72
18,CTACAAGCTTGGGTTCTAACCTGTTGCCT (site CTCCAAGCTAG),0.279
19,TGTGCGGCTTGGGTTCTAACCTGTTGCCT (site TGTGCGGCTAG),0.152
20,TCAGGAGCTTGGGTTCTAACCTGTTGCTA (site TCAGGAGCTTA),0.325
21,TGTCTAGCTTGGGTTCTAACCTGTTGCGG (site TGTCTAGCTCC),0.695
22,AGTGAACCTTGGGTTCTAACCTGTTGCCT (site AGCTAACCTAG),0.013

row,Sequence,recombinant barcode read abundance (log10)
1,CCGTCTACTTGGGTTCTAACCTGTTGCCA (site TAACTGTCTAA),0.164
2,CTACGATCTTGGGTTCTAACCTGTTGCAC (site CTACGTTCTGT),0.365
3,CAGTTGTCTTGGGTTCTAACCTGTTGCCT (site AAGTTGTCTAC),0.0187
4,TATAGGGCTTGGGTTCTAACCTGTTGCCG (site GATAGGGCTCC),0
5,CTGATCACTTGGGTTCTAACCTGTTGCCT (site CTGATCACTAG),1.03
6,CTATGGACTTGGGTTCTAACCTGTTGCAT (site CTATGGACTTT),0.0336
7,CGATTAGCTTGGGTTCTAACCTGTTGCCT (site CGATTACCTAG),0.038
8,GACCAGCCTTGGGTTCTAACCTGTTGCCT (site GACCAGCCTAA),0.277
9,CGTAAACCTTGGGTTCTAACCTGTTGCGT (site CGTTAACCTAC),0.393
10,TGATAGACTTGGGTTCTAACCTGTTGCAC (site AGAGAGACTGT),0.0172
11,CGGCCGCCTTGGGTTCTAACCTGTTGCTT (site CGGCCGCCTAA),0.69
12,GCCGAGTCTTGGGTTCTAACCTGTTGCTG (site GCCGAGTCTAA),0.11
13,AGTTAGTCTTGGGTTCTAACCTGTTGCGG (site AGTTAGTCTCC),1.43
14,TCGATCCCTTGGGTTCTAACCTGTTGCGT (site TCGATCCCTAC),1.95
15,CTATGGACTTGGGTTCTAACCTGTTGCAA (site CTATGGACTAT),0.0174
16,GAGCGAGCTTGGGTTCTAACCTGTTGCTA (site GAGCGGACTTA),0.267
17,TCGTCATCTTGGGTTCTAACCTGTTGCCT (site TCGTCCTCTAG),0.276
18,ATCGATGCTTGGGTTCTAACCTGTTGCCT (site ATCTATTCTAG),0.0828
19,GTGGAGTCTTGGGTTCTAACCTGTTGCGT (site TATCCTCCTCG),0.0104
20,AGTGCTCCTTGGGTTCTAACCTGTTGCGG (site AGTGCTCCTCC),0.18
21,TCCGAGACTTGGGTTCTAACCTGTTGCCA (site TCCGAGACTGG),0.176
22,TGTCAACCTTGGGTTCTAACCTGTTGCCT (site TGTCAATCTAG),0

row,Sequence,recombinant barcode read abundance (log10)
1,GAATATTCTTGGGTTCTAACCTGTTGCTT (site GAATGTTCTAA),0.0342
2,ATCCCATCTTGGGTTCTAACCTGTTGCCT (site ATACCATCTAG),0.383
3,AAATGTACTTGGGTTCTAACCTGTTGCCT (site AAATGTACTAG),1.04
4,GTCCTAACTTGGGTTCTAACCTGTTGCAC (site GTCCTAACTGT),2.08
5,CGGAGCTCTTGGGTTCTAACCTGTTGCCT (site CGGAGCTCTAG),1.94
6,AGGGTCACTTGGGTTCTAACCTGTTGCCT (site AAGGTCACTAG),0.274
7,ACGTGGACTTGGGTTCTAACCTGTTGCTA (site ACGTGGACTTA),1.06
8,CACACCACTTGGGTTCTAACCTGTTGCCT (site CACATCACTAG),0.108
9,ATGTCGTCTTGGGTTCTAACCTGTTGCCT (site AGGTCGTCTAG),0.141
10,AGCCCGCCTTGGGTTCTAACCTGTTGCCT (site CGCCCGCCTAG),0.39
11,GCGGATCCTTGGGTTCTAACCTGTTGCTA (site GCGGATCCTTA),1.9
12,GTTCGGACTTGGGTTCTAACCTGTTGCGG (site GTTCGGACTCC),2.69
13,ACATGGTCTTGGGTTCTAACCTGTTGCGT (site ACTGGGTCTAC),0.115
14,AAAGGGTCTTGGGTTCTAACCTGTTGCCT (site ACAGGGTCTAG),0.327
15,CCAAATCCTTGGGTTCTAACCTGTTGCAT (site TGTCTAGCTCC),0.697
16,CCTTTGACTTGGGTTCTAACCTGTTGCTT (site CCTTTGTCTAA),0.156
17,CAAGTCCCTTGGGTTCTAACCTGTTGCCT (site AAAGTCCCTAG),0.0441
18,TCTTATTCTTGGGTTCTAACCTGTTGCGT (site TCTTATTCTAC),0.258
19,ACGCGGCCTTGGGTTCTAACCTGTTGCCT (site TCGCGGCCTAG),0.108
20,GTACAGACTTGGGTTCTAACCTGTTGCCT (site GTTCAGACTAG),0.078
21,CCGTCTACTTGGGTTCTAACCTGTTGCCA (site CCGTCTACTTG),0.121
22,GCTACCTCTTGGGTTCTAACCTGTTGCCT (site GTGACCTCTAG),0.254

row,Sequence,recombinant barcode read abundance (log10)
1,TGTCAACCTTGGGTTCTAACCTGTTGCCT (site TGTCAAACTAG),0.346
2,TGGTGTACTTGGGTTCTAACCTGTTGCCT (site TGGTGTACTAG),0.461
3,TGAGGGTCTTGGGTTCTAACCTGTTGCTT (site GGAGGGTCTAA),0.0368
4,TCGTGCCCTTGGGTTCTAACCTGTTGCTG (site TCGTGCCCTCA),0.156
5,GGTAGGACTTGGGTTCTAACCTGTTGCCT (site AGTAGGACTAG),0.239
6,TAGTATACTTGGGTTCTAACCTGTTGCTG (site TAGTATACTCA),1.16
7,GCCGTAGCTTGGGTTCTAACCTGTTGCCT (site GGCGTAGCTAG),0.163
8,ACAGAGACTTGGGTTCTAACCTGTTGCAC (site ACAGAGACTGT),1.76
9,AGGTTCCCTTGGGTTCTAACCTGTTGCGG (site AGGTTCCCTCC),1.96
10,AGTTAGTCTTGGGTTCTAACCTGTTGCGG (site AATTAGTCTCC),0.00949
11,GCTCTAGCTTGGGTTCTAACCTGTTGCCT (site GCACAAGCTAG),0.0696
12,CGCTGGACTTGGGTTCTAACCTGTTGCCT (site CGCTCGACTAG),0.0114
13,TCAGCCTCTTGGGTTCTAACCTGTTGCCT (site CTGTGTCCTCC),0.11
14,TGTTCTCCTTGGGTTCTAACCTGTTGCCT (site AGTTCTCCTAG),0.0134
15,GTCGGGACTTGGGTTCTAACCTGTTGCCT (site GTCGGTACTAG),0.0446
16,ACTCACTCTTGGGTTCTAACCTGTTGCCT (site CGATCTCCTGT),0.0794
17,CTTTCACCTTGGGTTCTAACCTGTTGCCT (site CTTTCGTCTAG),0.0614
18,GATCGAGCTTGGGTTCTAACCTGTTGCGA (site GATGGAGCTCC),0.428
19,CGTATAGCTTGGGTTCTAACCTGTTGCCT (site CGTGAAGCTAG),0.0599
20,GGTGGCTCTTGGGTTCTAACCTGTTGCCA (site TAATCTCCTAC),0.0407

# From the supplement of paper PMC11208160
